Measurements: publication PMC3335777 (Journal of the American Chemical Society, 2012)
Like-named read-outs stand apart in the source and are kept apart here.

Tests used:
FabF [1] = molecular target: T1, FabF (Staphylococcus aureus, UniProt Q8NXE1); experiment: […]-malonyl-CoA FASII elongation assay; format: biochemical
T1 sequence (Q8NXE1 1-414): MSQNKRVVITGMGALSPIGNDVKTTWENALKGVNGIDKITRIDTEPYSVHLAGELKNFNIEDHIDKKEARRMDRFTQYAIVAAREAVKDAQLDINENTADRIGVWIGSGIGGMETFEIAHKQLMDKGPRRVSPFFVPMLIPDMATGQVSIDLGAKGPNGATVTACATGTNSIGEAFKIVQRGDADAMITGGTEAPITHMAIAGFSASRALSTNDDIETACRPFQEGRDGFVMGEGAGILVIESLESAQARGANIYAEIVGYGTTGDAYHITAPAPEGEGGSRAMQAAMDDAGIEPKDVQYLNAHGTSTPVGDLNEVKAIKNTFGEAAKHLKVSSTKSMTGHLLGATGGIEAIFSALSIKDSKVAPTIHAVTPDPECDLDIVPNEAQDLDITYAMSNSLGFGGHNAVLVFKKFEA

FabF [2] = molecular target: T1, FabF; format: biochemical

## fasamycin B [compound 2]
FabF [1]
  IC50: 80 µg/mL

## fasamycin A [compound 1]
FabF [2]
  IC50: 50 µg/mL
